Assay results taken from US20150352108A1, “AMINO-PYRIMIDINE COMPOUNDS AS INHIBITORS OF TBK1 AND/OR IKK EPSILON” (Alzheimer's Institute of America, priority 2009, published 2015).
Like-named read-outs stand apart in the source and are kept apart here.

Legend:
IKKε = molecular target: T1, IKKε (Homo sapiens, UniProt Q14164); assay: In-vitro IKKε kinase assay ([γ33]ATP filter-plate); type: biochemical
T1 construct: His-tag; made in house; host or cells: Sf9 insect cells
T1 sequence (Q14164 1-716): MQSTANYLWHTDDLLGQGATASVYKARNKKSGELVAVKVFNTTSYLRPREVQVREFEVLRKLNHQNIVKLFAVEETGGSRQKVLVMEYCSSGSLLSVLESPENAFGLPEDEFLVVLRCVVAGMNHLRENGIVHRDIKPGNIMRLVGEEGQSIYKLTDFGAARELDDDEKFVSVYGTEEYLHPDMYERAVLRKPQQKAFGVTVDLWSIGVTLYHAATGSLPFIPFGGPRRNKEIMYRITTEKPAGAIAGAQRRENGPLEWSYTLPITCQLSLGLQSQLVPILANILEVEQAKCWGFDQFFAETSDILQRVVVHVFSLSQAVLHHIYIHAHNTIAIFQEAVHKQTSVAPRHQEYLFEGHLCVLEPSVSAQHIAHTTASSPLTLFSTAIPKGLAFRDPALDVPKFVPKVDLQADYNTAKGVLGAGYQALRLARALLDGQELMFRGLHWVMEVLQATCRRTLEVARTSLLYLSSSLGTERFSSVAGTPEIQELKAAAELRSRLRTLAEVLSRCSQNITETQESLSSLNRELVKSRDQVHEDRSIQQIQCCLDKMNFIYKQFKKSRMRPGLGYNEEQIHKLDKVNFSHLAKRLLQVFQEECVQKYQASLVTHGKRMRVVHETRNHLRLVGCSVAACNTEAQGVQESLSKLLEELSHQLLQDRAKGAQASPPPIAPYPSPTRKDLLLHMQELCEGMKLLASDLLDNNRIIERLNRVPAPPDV
How it was run: (§1)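 His-tagged Sf9-expressed kinases at 0.1 or 0.02 μg/ml (TBK1) and 0.1 or 0.015 μg/ml (IKKε) for normal and sensitized formats, with myelin basic protein or casein substrate. ATP was at 2×Km (60 μM TBK1, 32 μM IKKε) plus 0.3 μCi [γ33]ATP. Reactions ran 30-45 min, were captured on P-81 filters, and counts were normalized to DMSO.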

[1] = test system: IKKε-mediated phosphorylation of IRF3; assay: In-situ phosphorylation of IRF3 (pIRF3 Ser396 ELISA) in HEK293T cells cotransfected with IRF3 and IKKε; type: cell-based; details: Homo sapiens, HEK-293T; HEK293T cells, 20 hours, text bins; read-out: IC50 for inhibition of the in-situ IKKε-mediated phosphorylation of IRF3
Experimental: HEK293T cells were cotransfected in a 10-cm dish with IRF3 and IKKε expression plasmids using Lipofectamine 2000 (Invitrogen, Carlsbad, Calif.). The following day, cells were replated at 20,000 per well in 96-well plates and treated with test compounds (compounds according to Formula I) for 20 hours. Cell lysates were prepared and analyzed using an ELISA for phospho-Ser396 (anti-IRF3 capture antibody, Santa Cruz Biotechnology, Inc., Santa Cruz, Calif.; anti-p-Ser396 IRF3 detection antibody, Cell Signaling, Danvers, Mass.). pIRF3 levels in compound treated cells were normalized to DMSO treated cells (no compound). Cell viability was assayed in a parallel set of plates to monitor cytotoxic effects of the test compounds (CellTiter-Glo, Promega, Inc., Madison, Wis.). TBK1 activity was tested by Western blotting using a phospho-specific IRF7 antibody. Similar to above, HEK293T cells were transfected with IRF7 and TBK1 expression plasmids. Cells were seeded in 12-well plates at 150,000 per well and treated overnight with test compounds. Protein lysates were prepared and processed for Western blotting followed by detection using a phosphor-Ser477/Ser479 IRF7 antibody (BD Biosciences, San Jose, Calif.)

TBK1 = molecular target: T2, TBK1 (Homo sapiens, UniProt Q9UHD2); assay: In-vitro TBK1 kinase assay ([γ33]ATP filter-plate); type: biochemical
T2 construct: His-tag; made in house; host or cells: Sf9 insect cells
T2 sequence (Q9UHD2 1-729): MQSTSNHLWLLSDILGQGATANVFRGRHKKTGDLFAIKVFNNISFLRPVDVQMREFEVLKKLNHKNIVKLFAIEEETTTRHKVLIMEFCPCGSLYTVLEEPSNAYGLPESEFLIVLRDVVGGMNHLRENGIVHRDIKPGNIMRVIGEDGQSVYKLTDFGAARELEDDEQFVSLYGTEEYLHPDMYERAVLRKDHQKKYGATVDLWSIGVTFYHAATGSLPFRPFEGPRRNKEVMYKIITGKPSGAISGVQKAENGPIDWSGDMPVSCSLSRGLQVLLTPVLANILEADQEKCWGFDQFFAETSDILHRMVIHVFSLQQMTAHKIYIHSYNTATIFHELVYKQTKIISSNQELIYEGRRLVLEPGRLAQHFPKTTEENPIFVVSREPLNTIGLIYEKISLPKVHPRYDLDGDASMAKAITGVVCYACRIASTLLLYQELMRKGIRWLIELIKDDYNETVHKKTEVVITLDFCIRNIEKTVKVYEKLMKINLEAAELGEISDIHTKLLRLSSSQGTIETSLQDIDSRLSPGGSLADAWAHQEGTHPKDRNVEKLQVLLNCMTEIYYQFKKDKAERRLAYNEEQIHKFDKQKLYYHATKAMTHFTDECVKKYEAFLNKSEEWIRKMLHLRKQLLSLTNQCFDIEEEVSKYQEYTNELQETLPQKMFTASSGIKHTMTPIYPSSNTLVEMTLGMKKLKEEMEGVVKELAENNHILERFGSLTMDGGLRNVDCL
How it was run: as §1

[2] = text bins, read-out: IC50 for inhibition of the kinase activity of IKKε
[3] = text bins, read-out: IC50 for inhibition of the kinase activity of TBK1

## N#Cc1cc(-c2ccnc(Nc3cccc(-n4cccn4)c3)n2)ccc1OC1CCOCC1 [compound 578, 5-(2-{[3-(1H-Pyrazol-1-yl)phenyl]amino}pyrimidin-4-yl)-2-(tetrahydro-2H-pyran-4-yloxy)benzonitrile]
IKKε; [2]
  IC50: < 5 nM
[1]
  IC50: 250 to 500 nM

## COCCC(=O)Nc1cccc(Nc2nccc(-c3ccc(OC4CCOCC4)c(C#N)c3)n2)c1 [compound 538, N-[3-({4-[3-Cyano-4-(tetrahydro-2H-pyran-4-yloxy)phenyl]pyrimidin-2-yl}amino)phenyl]-3-methoxypropanamide]
IKKε; [2]
  IC50: < 5 nM
[1]
  IC50: < 100 nM

## COc1cc(NC(=O)NC2CCN(C(C)=O)CC2)cc(Nc2nccc(-c3ccc(OC)c(C#N)c3)n2)c1 [compound 344, 1-(1-Acetylpiperidin-4-yl)-3-(3-{[4-(3-cyano-4-methoxyphenyl)pyrimidin-2-yl]amino}-5-methoxyphenyl)urea]
IKKε; [2]
  IC50: 5 to 50 nM
TBK1; [3]
  IC50: 10 to 100 nM

## CC(C)NC(=O)Nc1ccc(-c2ccnc(Nc3ccc(N4CCOCC4)cc3)n2)cc1C#N [Example 60, 1-[2-cyano-4-(2-{[4-(morpholin-4-yl)phenyl]amino}pyrimidin-4-yl)phenyl]-3-propan-2-ylurea]
IKKε; [2]
  IC50: 5 to 50 nM
TBK1; [3]
  IC50: 10 to 100 nM

## COc1cc(Nc2nccc(-c3ccc(OC(C)C)c(C#N)c3)n2)cc(OC)c1 [Example 272, 5-{2-[(3,5-Dimethoxyphenyl)amino]pyrimidin-4-yl}-2-(propan-2-yloxy)benzonitrile]
IKKε; [2]
  IC50: 5 to 50 nM
TBK1; [3]
  IC50: 10 to 100 nM

## N#Cc1cc(-c2ccnc(Nc3ccc(N4CCOCC4)cc3)n2)ccc1OCC1CCCNC1 (stereo not shown) [Example 94]
IKKε; [2]
  IC50: 5 to 50 nM
TBK1; [3]
  IC50: 10 to 100 nM

## N#Cc1cc(-c2ccnc(Nc3ccc(N4CCOCC4)cc3)n2)ccc1OCCO [Example 239, 2-(2-Hydroxyethoxy)-5-(2-{[4-(morpholin-4-yl)phenyl]amino}pyrimidin-4-yl)benzonitrile]
IKKε; [2]
  IC50: < 5 nM
TBK1; [3]
  IC50: < 10 nM

## N#Cc1cc(-c2ccnc(Nc3cccc(CC(=O)NCCCN4CCOCC4)c3)n2)ccc1OC1CCOCC1 [compound 407, 2-[3-({4-[3-Cyano-4-(tetrahydro-2H-pyran-4-yloxy)phenyl]pyrimidin-2-yl}amino)phenyl]-N-[3-(morpholin-4-yl)propyl]acetamide]
IKKε; [2]
  IC50: 5 to 50 nM
TBK1; [3]
  IC50: < 10 nM

## COc1ccc(Nc2nccc(-c3ccc(O)c(C#N)c3)n2)cc1OC [Example 118]
IKKε; [2]
  IC50: < 5 nM
TBK1; [3]
  IC50: < 10 nM

## COCCOC1CN(c2cc(Nc3nccc(-c4ccc(OC5CCOCC5)c(C#N)c4)n3)ccc2C)C1 [compound 596, 5-[2-({3-[3-(2-Methoxyethoxy)azetidin-1-yl]-4-methylphenyl}amino)pyrimidin-4-yl]-2-(tetrahydro-2H-pyran-4-yloxy)benzonitrile]
IKKε; Table 3, read-out: IKKε IC50
  IC50: 0.7 nM
IKKε; [2]
  IC50: < 5 nM
TBK1; Table 3, read-out: TBK1 IC50
  IC50: 1 nM
TBK1; [3]
  IC50: < 10 nM

## N#Cc1cc(-c2ccnc(Nc3ccc(N4CCOCC4)cc3)n2)ccc1OCc1ccccc1 [Example 179, 2-(Benzyloxy)-5-(2-{[4-(morpholin-4-yl)phenyl]amino}pyrimidin-4-yl)benzonitrile]
IKKε; [2]
  IC50: 5 to 50 nM
TBK1; [3]
  IC50: 10 to 100 nM

## COc1ccc(-c2ccnc(Nc3ccc(N4CCNC(=O)C4)c(OC)c3)n2)cc1C#N [compound 370, 2-Methoxy-5-(2-{[3-methoxy-4-(3-oxopiperazin-1-yl)phenyl]amino}pyrimidin-4-yl)benzonitrile]
IKKε; [2]
  IC50: < 5 nM
TBK1; [3]
  IC50: < 10 nM

## C[C@H](O)C(=O)N1CCC(COc2ccc(-c3ccnc(Nc4ccc(N5CCOCC5)cc4)n3)cc2C#N)CC1 [Example 152, 2-({1-[(2S)-2-hydroxypropanoyl]piperidin-4-yl}methoxy)-5-(2-{[4-(morpholin-4-yl)phenyl]amino}pyrimidin-4-yl)benzonitrile]
IKKε; [2]
  IC50: 5 to 50 nM
TBK1; [3]
  IC50: 10 to 100 nM

## CC(=O)Nc1ccc(-c2ccnc(Nc3ccc(N4CCOCC4)cc3)n2)cc1C#N [Example 117, N-[2-Cyano-4-(2-{[4-(morpholin-4-yl)phenyl]amino}pyrimidin-4-yl)phenyl]acetamide]
IKKε; [2]
  IC50: 5 to 50 nM
TBK1; [3]
  IC50: 10 to 100 nM

## CC(C)C(=O)Nc1ccc(-c2ccnc(Nc3cccc(CC(=O)N4CCN(C(C)C)CC4)c3)n2)cc1C#N [compound 423, N-(2-cyano-4-{2-[(3-{2-oxo-2-[4-(propan-2-yl)piperazin-1-yl]ethyl}phenyl)amino]pyrimidin-4-yl}phenyl)-2-methylpropanamide]
IKKε; [2]
  IC50: 5 to 50 nM
TBK1; [3]
  IC50: < 10 nM

## COc1cc(Nc2nccc(-c3ccc(OC4CCN(S(C)(=O)=O)CC4)c(C#N)c3)n2)ccc1N1CCOCC1 [Example 79, 5-(2-{[3-methoxy-4-(morpholin-4-yl)phenyl]amino}pyrimidin-4-yl)-2-{[1-(methylsulfonyl)piperidin-4-yl]oxy}benzonitrile]
IKKε; [2]
  IC50: 5 to 50 nM
TBK1; [3]
  IC50: 10 to 100 nM

## COc1ccc(-c2ccnc(Nc3ccc(N4CCNC(=O)C4)cc3)n2)cc1C#N [Example 71, 2-Methoxy-5-(2-{[4-(3-oxopiperazin-1-yl)phenyl]amino}pyrimidin-4-yl)benzonitrile]
IKKε; [2]
  IC50: 5 to 50 nM
TBK1; [3]
  IC50: 10 to 100 nM

## COc1cc(NC(=O)NCCO)cc(Nc2nccc(-c3ccc(OC4CCN(C(C)=O)CC4)c(C#N)c3)n2)c1 [compound 380]
IKKε; [2]
  IC50: 5 to 50 nM
TBK1; [3]
  IC50: 10 to 100 nM

## COc1ccc(-c2ccnc(Nc3ccc(CN4CCN(C)CC4)cc3)n2)cc1C#N [compound 337, 2-Methoxy-5-[2-({4-[(4-methylpiperazin-1-yl)methyl]phenyl}amino)pyrimidin-4-yl]benzonitrile]
IKKε; [2]
  IC50: 5 to 50 nM
TBK1; [3]
  IC50: 10 to 100 nM

## COC(=O)C(C)Oc1ccc(-c2ccnc(Nc3ccc(N4CCOCC4)cc3)n2)cc1C#N (stereo not shown) [Example 63, Methyl 2-[2-cyano-4-(2-{[4-(morpholin-4-yl)phenyl]amino}pyrimidin-4-yl)phenoxy] propanoate]
IKKε; [2]
  IC50: 5 to 50 nM
TBK1; [3]
  IC50: 10 to 100 nM

## N#Cc1cc(-c2ccnc(Nc3ccc(N4CCOCC4)cc3)n2)ccc1OCC1CCCCO1 (stereo not shown) [Example 205, 5-(2-{[4-(Morpholin-4-yl)phenyl]amino}pyrimidin-4-yl)-2-(tetrahydro-2H-pyran-2-ylmethoxy) benzonitrile]
IKKε; [2]
  IC50: 5 to 50 nM
TBK1; [3]
  IC50: 10 to 100 nM

## CS(=O)(=O)N1CCC(Oc2ccc(-c3ccnc(Nc4ccc(N5CCOCC5)cc4)n3)cc2C#N)CC1 [Example 246, 2-{[1-(Methylsulfonyl)piperidin-4-yl]oxy}-5-(2-{[4-(morpholin-4-yl)phenyl]amino}pyrimidin-4-yl)benzonitrile]
IKKε; [2]
  IC50: < 5 nM
TBK1; [3]
  IC50: < 10 nM
